Data: publication PMC9322122, “Development of (4-Phenylamino)quinazoline Alkylthiourea Derivatives as Novel NF-κB Inhibitors” (Pharmaceuticals, 2022)

Columns and labels:
IL-6 production = IL-6 production in LPS-activated dTHP-1 cells (ELISA); assay type: cell-based, human; conditions: Homo sapiens; for inhibition at 7.5 µM / inhibition at 15 µM: LPS 100 ng/mL for 24 h, dTHP-1 cells; for inhibition at 7.5 µM: read-out: IL-6 Production Inh % (7.5 μM); for inhibition at 15 µM: read-out: IL-6 Production Inh % (15 μM); for IC50: LPS-activated dTHP-1 cells, 24 h
Description: (§1) The HEK-293 (ATCC Cat# CRL-1573, RRID:CVCL_0045) and human monocytic THP−1 cells (ATCC Cat# TIB-202, RRID:CVCL_0006) were, respectively, cultured in DMEM and RPMI 1640 media supplemented with 10% fetal bovine serum, 2 mM L-glutamine, and 1× Antibiotic-Antimycotic at 37 °C in a humidified incubator with 5% CO2. THP−1 cells were differentiated by 100 nM phorbol-12-myristate-13-acetate (PMA) for 4 h and then rested for 44 h as dTHP−1 cells.
(§2) The dTHP−1 cells were treated with indicated compounds for 3 h and then activated with or without 100 ng/mL lipopolysaccharide (LPS; E. coli 0111:B4) for another 24 h. The levels of human IL-6 and TNFα in supernatants were measured by DuoSet® ELISA Development System (R&D systems, Minneapolis, MN, USA) according to the manufacturer’s protocol.

[1] = Cell viability (WST-1), A549; assay type: cell-based; conditions: human, A549 cells, mean ± SEM, n = 3
Description: (§3) Cells were incubated with the WST-1 reagent (Thermo Fisher Scientific, Waltham, MA, USA) at 37 °C for 2 h. The cell viability was determined by spectrophotometer at 450 nm.

dTHP−1 cells = experiment: Cell viability of dTHP-1 cells with or without LPS; assay type: cell-based, human; conditions: in % (unit assumed); for Cell viability of dTHP-1 cells, 5 μM, LPS / Cell viability of dTHP-1 cells, 5 μM, without LPS: 5 μM (so in the source); for Cell viability of dTHP-1 cells, 5 μM, without LPS / Cell viability of dTHP-1 cells, 7.5 μM, without LPS: no LPS
Description: as §1, §3, §2

Recombinant EGFR kinase = Recombinant EGFR kinase (Homo sapiens, UniProt P00533); experiment: Recombinant EGFR kinase activity; assay type: biochemical; conditions: read-out: Recombinant EGFR Kinase Activity (%inh at 150 nM)
[2] = Cell viability (WST-1), HEK293; assay type: cell-based; conditions: human, HEK293 cells, mean ± SEM, n = 3
Description: as §3

TNFα production = TNFα production in LPS-activated dTHP-1 cells (ELISA); assay type: cell-based; conditions: Homo sapiens; for inhibition at 7.5 µM / inhibition at 15 µM: LPS 100 ng/mL for 24 h, dTHP-1 cells; for inhibition at 7.5 µM: read-out: TNFα Production Inh % (7.5 μM); for inhibition at 15 µM: read-out: TNFα Production Inh % (15 μM); for IC50: LPS-activated dTHP-1 cells, 24 h
Description: as §1, §2

NF-κB = NF-κB luciferase reporter assay; assay type: cell-based; conditions: Homo sapiens, NF-κB-luciferase-transfected HEK293 cells, TNFα 50 ng/mL; for inhibition at 10 µM: mean ± SEM, n = 3, read-out: NF-κB Luciferase Activity Inh %
Description: NF-κB Luciferase Reporter Vector was purchased from Signosis (Santa Clara, CA, USA) and transfected into HEK-293 cells using FuGENE HD (Promega, Fitchburg, MA, USA) following the manufacturer’s protocol. The transfected cells were incubated in serum-free DMEM for 16 h and then treated with DMSO or indicated compounds. After 3 h, cells were treated with or without 50 ng/mL of Recombinant Human TNFα Protein (R&D systems, Minneapolis, MN, USA) for another 3 h. The protein lysates were analyzed using Steady-Glo® Luciferase Assay System (Promega, Fitchburg, MA, USA) and TECAN Infinite 200 pro (Männedorf, Switzerland).

Recombinant EGFR kinase, sequence (P00533 25-1210): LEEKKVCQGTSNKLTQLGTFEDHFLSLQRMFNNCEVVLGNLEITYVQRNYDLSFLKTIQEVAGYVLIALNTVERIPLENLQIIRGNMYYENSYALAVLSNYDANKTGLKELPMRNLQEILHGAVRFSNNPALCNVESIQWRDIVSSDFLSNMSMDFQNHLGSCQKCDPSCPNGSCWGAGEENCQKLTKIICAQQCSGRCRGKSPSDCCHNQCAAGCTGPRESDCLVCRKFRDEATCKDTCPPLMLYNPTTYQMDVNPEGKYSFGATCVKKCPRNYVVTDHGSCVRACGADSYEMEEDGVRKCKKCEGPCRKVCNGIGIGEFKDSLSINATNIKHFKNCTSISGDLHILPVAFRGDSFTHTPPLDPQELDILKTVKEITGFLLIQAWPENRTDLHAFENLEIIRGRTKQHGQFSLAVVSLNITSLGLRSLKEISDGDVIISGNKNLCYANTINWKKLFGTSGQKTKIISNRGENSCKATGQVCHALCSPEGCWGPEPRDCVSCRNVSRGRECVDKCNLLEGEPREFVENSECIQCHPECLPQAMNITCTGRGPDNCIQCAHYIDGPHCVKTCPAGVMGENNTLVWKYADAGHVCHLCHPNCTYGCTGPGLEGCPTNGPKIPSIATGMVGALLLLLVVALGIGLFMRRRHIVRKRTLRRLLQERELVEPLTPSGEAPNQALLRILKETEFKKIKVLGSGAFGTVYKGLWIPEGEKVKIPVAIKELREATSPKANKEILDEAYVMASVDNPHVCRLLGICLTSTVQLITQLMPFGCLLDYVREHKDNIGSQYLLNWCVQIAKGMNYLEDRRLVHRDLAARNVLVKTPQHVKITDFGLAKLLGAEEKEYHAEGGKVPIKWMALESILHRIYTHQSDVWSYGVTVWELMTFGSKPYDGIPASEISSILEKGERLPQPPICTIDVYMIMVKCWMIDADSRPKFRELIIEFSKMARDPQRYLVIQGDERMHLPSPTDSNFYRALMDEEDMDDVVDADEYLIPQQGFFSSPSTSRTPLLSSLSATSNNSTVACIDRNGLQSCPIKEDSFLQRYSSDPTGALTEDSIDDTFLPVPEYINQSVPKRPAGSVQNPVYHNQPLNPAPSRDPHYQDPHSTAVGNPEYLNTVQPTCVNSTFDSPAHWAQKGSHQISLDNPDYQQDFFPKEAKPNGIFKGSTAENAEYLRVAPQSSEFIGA

IC50 (IL-6 production)	inhibition at 0.15 µM (Recombinant EGFR kinase)	melting point	IC50 (TNFα production)	IC50 (NF-κB)	Compound	inhibition at 7.5 µM (IL-6 production)	inhibition at 15 µM (IL-6 production)	viability at 10 µM [1]	Cell viability of dTHP-1 cells, 5 μM, LPS (dTHP−1 cells; LPS 100 ng/mL for 24 h)	Cell viability of dTHP-1 cells, 5 μM, without LPS (dTHP−1 cells)	Cell viability of dTHP-1 cells, 7.5 μM, without LPS (dTHP−1 cells; 7.5 μM)	viability at 10 µM [2]	inhibition at 7.5 µM (TNFα production)	inhibition at 15 µM (TNFα production)	inhibition at 10 µM (NF-κB)	Cell viability of dTHP-1 cells, 7.5 μM, LPS (dTHP−1 cells; 7.5 μM, LPS 100 ng/mL for 24 h)
720 ± 170 nM	36.5%	219.1 to 220.2 °C	12.3 ± 1 µM	> 10 µM	S=C(Nc1ccc2ncnc(Nc3cccc(Cl)c3)c2c1)NC1CC1 [Compound 17, 1-(4-((3-Chlorophenyl)amino)quinazolin-6-yl)-3-cyclopropylthiourea]	86 ± 2.3%	95.8 ± 0.33%	102.6 ± 0.2%	62.0 ± 3.4	84.5 ± 4.8	94.3 ± 1.9	103 ± 8.4%	19 ± 8%	62 ± 4.2%	47 ± 5.3%	
	48.9%	186.1 to 188.5 °C		7 µM	O=C(NC(=S)Nc1ccc2ncnc(Nc3cccc(Cl)c3)c2c1)c1ccccc1 [Compound 16, N-((4-((3-Chlorophenyl)amino)quinazolin-6-yl)carbamothioyl)benzamide]			102 ± 1.6%				102 ± 4%			58.2 ± 5.2%	
	26%	252.4 to 254 °C		> 10 µM	O=C(NC(=O)c1ccccc1)Nc1ccc2ncnc(Nc3cccc(Cl)c3)c2c1 [Compound 15, N-((4-((3-Chlorophenyl)amino)quinazolin-6-yl)carbamoyl)benzamide]			100 ± 4.5%				114 ± 2.6%			48.3 ± 9.3%	
	44.5%	222.4 to 228.8 °C		8 µM	C#Cc1cccc(Nc2ncnc3ccc(NC(=O)NCc4cccc(Cl)c4)cc23)c1 [Compound 14, 1-(3-Chlorobenzyl)-3-(4-((3-ethynylphenyl)amino)quinazolin-6-yl)urea]			98.6 ± 3%				110 ± 2.7%			58.5 ± 0.9%	
1200 ± 120 nM	67%	165 to 167 °C	10.2 ± 0.27 µM	1.7 µM	COc1ccc(CNC(=S)Nc2ccc3ncnc(Nc4cccc(Cl)c4)c3c2)cc1 [Compound 2, 1-(4-((3-Chlorophenyl)amino)quinazolin-6-yl)-3-(4-methoxybenzyl)thiourea]	76.2 ± 13.3%	87.5 ± 6.8%	95.4 ± 1.9%	78.8 ± 5.3	94.2 ± 1.6	99.2 ± 1.5	101 ± 7.4%	32.5 ± 8.5%	60.4 ± 1.8%	94.6 ± 0.1%	57.5 ± 1.4
	56%	166 to 168 °C		> 10 µM	S=C(NCc1ccc(Cl)cc1)Nc1ccc2ncnc(Nc3cccc(Cl)c3)c2c1 [Compound 4, 1-(4-Chlorobenzyl)-3-(4-((3-chlorophenyl)amino)quinazolin-6-yl)thiourea]			98.1 ± 1.9%				95.9 ± 3.4%			31.9 ± 9.6%	
	34.6%	225.5 to 227 °C		> 10 µM	O=C(NCc1cccc(Cl)c1)Nc1ccc2ncnc(Nc3cccc(Cl)c3)c2c1 [Compound 12, 1-(3-Chlorobenzyl)-3-(4-((3-chlorophenyl)amino)quinazolin-6-yl)urea]			101 ± 4.2%				114 ± 3.2%			42.7 ± 9.3%	
	42%	203 to 205 °C		> 10 µM	CC(C)(C)c1ccc(CNC(=S)Nc2ccc3ncnc(Nc4cccc(Cl)c4)c3c2)cc1 [Compound 1, 1-(4-(tert-Butyl)benzyl)-3-(4-((3-chlorophenyl)amino)quinazolin-6-yl)thiourea]			91.1 ± 3.4%				73.9 ± 4.6%			41.6 ± 3.8%	
	23.3%	210.8 to 212 °C		8.1 µM	O=C(NCc1cccc(F)c1)Nc1ccc2ncnc(Nc3cccc(Cl)c3)c2c1 [Compound 13, 1-(4-((3-Chlorophenyl)amino)quinazolin-6-yl)-3-(3-fluorobenzyl)urea]			104 ± 5%				95.5 ± 6.1%			53.3 ± 10%	
1200 ± 160 nM	48%	204 to 206 °C	11.9 ± 0.7 µM	> 10 µM	COc1ccc(CNC(=S)Nc2ccc3ncnc(Nc4cccc(Cl)c4)c3c2)c(OC)c1 [Compound 7, 1-(4-((3-Chlorophenyl)amino)quinazolin-6-yl)-3-(2,4-dimethoxybenzyl)thiourea]	71 ± 3.4%	84 ± 0.82%	99.5 ± 1.4%	91.9 ± 4.2	96.8 ± 4.2	94.4 ± 0.61	85.9 ± 2.5%	37 ± 4.9%	50.3 ± 5.5%	27.1 ± 3.4%	
	72%	164 to 166 °C		1.9 µM	Fc1ccc(CNC(=S)Nc2ccc3ncnc(Nc4cccc(Cl)c4)c3c2)cc1 [Compound 5, 1-(4-((3-Chlorophenyl)amino)quinazolin-6-yl)-3-(4-fluorobenzyl)thiourea]			65.3 ± 1.1%				67 ± 6.1%			79.1 ± 0.8%	
	79.1%	195.6 to 198.2 °C		4.3 µM	S=C(NCc1ccco1)Nc1ccc2ncnc(Nc3cccc(Cl)c3)c2c1 [Compound 10, 1-(4-((3-Chlorophenyl)amino)quinazolin-6-yl)-3-(furan-2-ylmethyl)thiourea]			74.4 ± 11.7%				71.7 ± 3.1%			76.1 ± 2.3%	
	70%	165 to 167 °C		> 10 µM	FC(F)(F)c1ccc(CNC(=S)Nc2ccc3ncnc(Nc4cccc(Cl)c4)c3c2)cc1 [Compound 3, 1-(4-((3-Chlorophenyl)amino)quinazolin-6-yl)-3-(4-(trifluoromethyl)benzyl)thiourea]			73.4 ± 4.3%				68.9 ± 6.4%			46.5 ± 4.9%	
	66%	205.6 to 207.9 °C		> 10 µM	S=C(NCc1cccnc1)Nc1ccc2ncnc(Nc3cccc(Cl)c3)c2c1 [Compound 11, 1-(4-((3-Chlorophenyl)amino)quinazolin-6-yl)-3-(pyridin-3-ylmethyl)thiourea]			98.9 ± 4.1%				62.8 ± 4%			44.7 ± 5.8%	
	40%	183 to 185 °C		2.3 µM	COc1cccc(CNC(=S)Nc2ccc3ncnc(Nc4cccc(Cl)c4)c3c2)c1 [Compound 8, 1-(4-((3-Chlorophenyl)amino)quinazolin-6-yl)-3-(3-methoxybenzyl)thiourea]			101 ± 2.3%				100 ± 6.9%			76.1 ± 2.6%	
	69.8%	178.8 to 180.7 °C		2.8 µM	S=C(NCc1cccs1)Nc1ccc2ncnc(Nc3cccc(Cl)c3)c2c1 [Compound 9, 1-(4-((3-Chlorophenyl)amino)quinazolin-6-yl)-3-(thiophen-2-yl-methyl)thiourea]			50.7 ± 2.4%				13.9 ± 0.7%			98 ± 0.4%	
